The values below are quoted from earlier work in patent US9636305B2, “Antiemetic extended release solid dosage forms” (RedHill Biopharma Ltd., priority 2013, dated 2017).

For this series the following is noted: scale of Pliska et al., J. Chromatog. 216, 79, 1981.
`NCC(=O)O` [glycine]: the hydropathy value was 0. In the case of `CC[C@H](C)[C@H](N)C(=O)O` [iso-leucine], the hydropathy value was 1.83. For `N[C@@H](CC(=O)O)C(=O)O` [aspartic acid], the hydropathy value is −2.15.
